# US20260226038A1, “NEW COMPOUNDS FOR TREATING STAPHYLOCOCCUS INFECTIONS” (AB2 THERAPEUTICS, S. L., priority 2023, published 2026)
# Tested on: Staphylococcus aureus
# Assay: MIC test, microdilution method (CLSI)
# Assay type: cell-based
# Conditions: ATCC strains of Staphylococcus aureus; 18-20 h at 37° C.; growth inhibited ≥80% compared to growth control
# Procedure: Experimental Procedure: MIC Test. Microdilution Method To evaluate the antimicrobial activity of the compounds, ATCC strains of Staphylococcus aureus were used. The minimal inhibitory concentrations (MICs) of the compounds were determined by microdilution assays, according to CLSI methodology. 3 mg of compound were weighted in a 4 mL glass vials and were dissolved in properly volume of DMSO 100% (Reference: […]-50, Sigma) to reach 12.8 mg/mL (Cmax). In 96-well plates U-form (Reference: 650161, Greiner Bio-One): • Dispense 50 μL of the assayed compounds prepared in DMSO 100% at 12.8 mg/mL in each well in column 1. (8 different compounds per plate, row 1 to row 8) • Dispense 25 μL of DMSO 100% in all wells in columns 2 to 12. • With a multichannel pipette, aspire 25 μL of column 1 and dispense in column 2. Mix the contents in column 2 several times and aspire 25 μL. Dispense in column 3. • Repeat the process until column 10. In column 10, aspire 25 μL of the content and discard. In 96-well plates U-form: • With a multichannel pipette (in dispensing mode), aspire a properly volume (consider the number of copies of the mother plate do you want to perform) of all wells in mother plate, to dispense 1 μL/well in daughter plates. Tecan instrument (FREEDOM EVO 100) was used to make the mother and daughter plates. Bacterial suspension will be prepared and normalized to 0.5 McFarland turbidity standard (aprox. 10^8 CFU/mL) using a physiological saline solution (sodium chloride 0.9%). Then, prepared a 1/1000 dilution (aprox. 10^5 CFU/mL) of the suspension in appropriate media (CLSI Standard) and inoculate 99 μL in each well in daughter plates (only columns 1 to 11) using a MultidropTM Combi Reagent Dispenser. In column 12, only 99 μL of media will be dispense as a sterility control. The final plate map is (all values in μg/mL): Plates will be incubated 18-20 h at 37° C. MIC values will be considered as the concentration of compounds at which the growth will be inhibited=>≥80%, compared to growth control.
row,SMILES,MIC [µg/mL]
1,"COc1ccccc1N(CCCO)C(=O)Cc1noc(CN2C(=O)C(=O)N(CC3CC3)C2=O)n1 [Example 4, 2-(5-((3-(cyclopropylmethyl)-2,4,5-trioxoimidazolidin-1-yl)methyl)-1,2,4-oxadiazol-3-yl)-N-(3-hydroxypropyl)-N-(2-methoxyphenyl)acetamide]",16
2,"CCN(C(=O)Cc1noc(CN2C(=O)C(=O)N(CC3CC3)C2=O)n1)c1ccccc1OC [Example 24, 2-(5-((3-(Cyclopropylmethyl)-2,4,5-trioxoimidazolidin-1-yl)methyl)-1,2,4-oxadiazol-3-yl)-N-ethyl-N-(2-methoxyphenyl)acetamide]",8
3,"COc1ccccc1N(CCOCCO)C(=O)Cc1noc(CN2C(=O)C(=O)N(CC3CC3)C2=O)n1 [Example 5, 2-(5-((3-(cyclopropylmethyl)-2,4,5-trioxoimidazolidin-1-yl)methyl)-1,2,4-oxadiazol-3-yl)-N-(2-(2-hydroxyethoxy)ethyl)-N-(2-methoxyphenyl)acetamide]",32

# These reach a lower MIC. Values come first.
row,MIC [µg/mL],SMILES
1,4,"COc1ccccc1N(CCO)C(=O)Cc1noc(CN2C(=O)C(=O)N(CC3CC3)C2=O)n1 [Example 1, 2-(5-((3-(Cyclopropylmethyl)-2,4,5-trioxoimidazolidin-1-yl)methyl)-1,2,4-oxadiazol-3-yl)-N-(2-hydroxyethyl)-N-(2-methoxyphenyl)acetamide]"
2,4,"COc1ccccc1N(C)C(=O)Cc1noc(CN2C(=O)C(=O)N(CC3CC3)C2=O)n1 [Example 26, 2-(5-((3-(Cyclopropylmethyl)-2,4,5-trioxoimidazolidin-1-yl)methyl)-1,2,4-oxadiazol-3-yl)-N-(2-methoxyphenyl)-N-methylacetamide]"
3,4,"COc1ccccc1NC(=O)Cc1noc(CN2C(=O)C(=O)N(CC3CC3)C2=O)n1 [Example 27, 2-(5-((3-(Cyclopropylmethyl)-2,4,5-trioxoimidazolidin-1-yl)methyl)-1,2,4-oxadiazol-3-yl)-N-(2-methoxyphenyl)acetamide]"
